Measured values published in PMC8745237, “Multiple Antimicrobial Effects of Hybrid Peptides Synthesized Based on the Sequence of Ribosomal S1 Protein from Staphylococcus aureus” (International Journal of Molecular Sciences, 2022).

How the values were obtained:
MRSA (SA 180-F strain) = test: Preliminary testing of antimicrobial properties on agar, MRSA SA 180-F; format: cell-based, Methicillin-resistant Staphylococcus aureus
Description: (§1) Table S4. Results of preliminary testing the antimicrobial properties of the VVVHINGGKF (V10F), GVVVRLANFG (G10G),
(§2) VQGLVHISEI (V10I), QQVNVKILGI (Q10I) peptides against S. aureus, MRSA, B. cereus, and E. coli bacteria cells on agar. […]

MRSA (ATCC 43300 strain) = test: Preliminary testing of antimicrobial properties on agar, MRSA ATCC 43300; format: cell-based, Methicillin-resistant Staphylococcus aureus
Description: as §1, §2
MRSA (ATCC 43300 Non-AMP Non-AMP Non-AMP Non-AMP Non-AMP

[1] = test system: B. cereus (IP-5812 strain); test: Preliminary testing of antimicrobial properties on agar, B. cereus; format: cell-based, Bacillus cereus
Description: as §1, §2

E. coli (K12 strain) = test: Preliminary testing of antimicrobial properties on agar, E. coli; format: cell-based, Escherichia coli
Description: as §1, §2

S. aureus (209P strain) = test: Preliminary testing of antimicrobial properties on agar, S. aureus; format: cell-based, Staphylococcus aureus
Description: as §1
VQGLVHISEI (V10I), QQVNVKILGI (Q10I) peptides against S. aureus, MRSA, B. cereus, and E. coli bacteria cells on agar.

Sequence: GVVVRLANFG [G10G]
- antimicrobial properties on agar (MRSA (SA 180-F strain); peptide 1 µM): Non-AMP
- antimicrobial properties on agar (MRSA (SA 180-F strain); peptide 10 µM): Non-AMP
- antimicrobial properties on agar (MRSA (SA 180-F strain); peptide 100 µM): Non-AMP
- antimicrobial properties on agar (MRSA (SA 180-F strain); peptide 1000 µM): Non-AMP
- antimicrobial properties on agar (MRSA (SA 180-F strain); peptide 10000 µM): Non-AMP
- antimicrobial properties on agar (MRSA (ATCC 43300 strain); peptide 1 µM): Non-AMP
- antimicrobial properties on agar (MRSA (ATCC 43300 strain); peptide 10 µM): Non-AMP
- antimicrobial properties on agar (MRSA (ATCC 43300 strain); peptide 100 µM): Non-AMP
- antimicrobial properties on agar (MRSA (ATCC 43300 strain); peptide 1000 µM): Non-AMP
- antimicrobial properties on agar (MRSA (ATCC 43300 strain); peptide 10000 µM): Non-AMP
- antimicrobial properties on agar ([1]; peptide 1 µM): Non-AMP
- antimicrobial properties on agar ([1]; peptide 10 µM): Non-AMP
- antimicrobial properties on agar ([1]; peptide 100 µM): Non-AMP
- antimicrobial properties on agar ([1]; peptide 1000 µM): Non-AMP
- antimicrobial properties on agar ([1]; peptide 10000 µM): Non-AMP
- antimicrobial properties on agar (E. coli (K12 strain); peptide 1 µM): Non-AMP
- antimicrobial properties on agar (E. coli (K12 strain); peptide 10 µM): Non-AMP
- antimicrobial properties on agar (E. coli (K12 strain); peptide 100 µM): Non-AMP
- antimicrobial properties on agar (E. coli (K12 strain); peptide 1000 µM): Non-AMP
- antimicrobial properties on agar (E. coli (K12 strain); peptide 10000 µM): Non-AMP
- antimicrobial properties on agar (S. aureus (209P strain); peptide 1 µM): Non-AMP
- antimicrobial properties on agar (S. aureus (209P strain); peptide 10 µM): Non-AMP
- antimicrobial properties on agar (S. aureus (209P strain); peptide 100 µM): Non-AMP
- antimicrobial properties on agar (S. aureus (209P strain); peptide 1000 µM): Non-AMP
- antimicrobial properties on agar (S. aureus (209P strain); peptide 10000 µM): AMP
